Test results as given in publication PMC7274485, “A symbiotic bacterium of shipworms produces a compound with broad spectrum anti-apicomplexan activity” (PLoS Pathogens, 2020).
Entries after “also recorded” stand apart in the source; their conditions may differ.

How the values were obtained:
[1] = tested on: Gram positive bacteria; settings: at μM concentrations; cited from earlier work
[2] = tested on: Cryptosporidium parvum; assay: Nanoluciferase-expressing C. parvum inhibitor response assay in HCT-8 cells; format: cell-based; settings: HCT-8 cells infected 24 hours, read 48 hours post-treatment, read-out: EC50 against C. parvum
Method: We had postulated that secondary metabolites generated by symbiotic bacteria of invertebrates might include compounds that target gregarines, an ancient group of apicomplexans found in most, and perhaps all, invertebrates. The only gregarines known to infect mammals are Cryptosporidium species, gastrointestinal parasites that cause diarrheal disease in humans and other mammals. HCT8 cells were infected with luciferase-expressing Cryptosporidium parvum parasites for 24 hours, then two-fold dilutions of trtE added to the infected cells. 48 hours after the addition of trtE, parasite growth was quantified by luciferase expression. […] To examine the morphology of trtE treated C. parvum parasites, HCT8 cells were infected with C. parvum oocysts for 8 hours. Extracellular parasites were washed off and medium containing 60 nM trtE added to the infected cells. After 12 hours of treatment, infected cells were fixed and processed for IFAs.
C. parvum oocysts expressing nanoluciferase (nLuc) were obtained from the Cryptosporidium Production Laboratory at the University of Arizona and inhibitor response assays were conducted as previously described.

[3] = tested on: intracellular T. gondii RH strain; assay: Immunofluorescence assay (anti-SAG1) of T. gondii-infected HFF cells; format: cell-based, Toxoplasma gondii; settings: RH strain in HFF; 60 nM trtE for 24 hours (Fig 2B)
Source text: For our initial study, we chose to look for anti-apicomplexan compounds in Teredinibacter turnerae. T. turnerae is a gill symbiotic bacterium common to many species of shipworms. We grew two strains of T. turnerae, T7901 [1] and T7902 [24], in shipworm bacterial media (SBM), pelleted the cells and tested the culture supernatants for activity against T. gondii. We chose T. gondii, a ubiquitous coccidian parasite, as a target parasite because it represents a significant human and animal pathogen, it is easily propagated in vitro and is amenable to genetic manipulation. T. gondii is often used as a model for other, more challenging apicomplexans. […] Parasites were evaluated after 24 hours of treatment by immunofluorescence (IFA) microscopy with rabbit antibody to the T. gondii surface antigen, SAG1 [27]. […]
For all IFAs, the investigator reading the slides and collecting images was blind to the sample treatment. […] 24 hours post treatment, infected cells were fixed with methanol, and parasites detected with rabbit anti-SAG1 antibody for T. gondii or rabbit anti-gp15 for C. parvum as we have described previously. […] This CE11 line is transiently transfected with a plasmid that expresses nanoluciferase from a B. divergens promoter and green fluorescence protein-blasticidin (gfp-bsd) from the selection cassette. […]

[4] = tested on: Cryptosporidium parvum; assay: Neonatal mouse model of Cryptosporidium parvum infection; format: in vivo, mice; settings: for Number of parasites in the intestine (histology infection score): 2 mg/kg orally every 12 hours, four doses, 5 days post infection, purification method 1
Method: Of all apicomplexans that infect both humans and domesticated animals, Cryptosporidium is a particular challenge for human and veterinary medicine as there is currently no effective treatment for this parasite. We chose to evaluate the in vivo efficacy of trtE using a neonatal mouse model of C. parvum infection. […] In a preliminary experiment, ten, 8 day old mice were infected with C. parvum and then treated with four doses of 2 mg/kg of trtE (purification method 1) given orally every 12 hours for 2 days. Control mice received DMSO vehicle control. Five days post infection, mice were euthanized and the intestines processed for histology. Infection was scored by visual evaluation of infection intensity throughout the intestine by an investigator blinded to treatment. […] Eight-day-old mice, infected with C. parvum, were treated orally twice daily with trtE at 0.4, 4 or 40 mg/kg beginning two days post-infection and continuing for 2 days. On day 5, mice were euthanized and intestines processed for quantitative PCR to quantify infection.
8-day-old mice were infected with 5x10^4 oocysts by oral gavage. In the initial preliminary experiment using trtE purified by method 1, mice were treated 48 hrs post infection with 2 mg/kg trtE every 12 hours by oral gavage for a total of 4 treatments. Control mice received vehicle control (DMSO diluted in DMEM containing 10% fetal calf serum). Mice were sacrificed 5 days post infection and intestines prepared for histological evaluation. Slides were blinded and the intensity of infection scored in the terminal jejunum, ileum, caecum and colon as previously described. Infection intensity scores for each region were added together to give a total infection score for the animal.
In the second set of experiments, mice were infected and treated as before, with 0.4, 4 or 40 mg/kg of trtE purified using method 2. Control mice received vehicle control in parallel. Mice were sacrificed 5 days post-infection and infection quantified by qPCR as previously described. The experiment was conducted three times.

CC1CCC=CC=CCCC(O)CC(=O)CC2CCC(C)C3(O2)O[B-]24OC(C(=O)O1)C1(OC(CCC1C)CC(=O)CC(O)CCC=CC=CCCC(C)OC(=O)C3O2)O4 (stereo not drawn) [trtE, tartrolon E]
Activity of trtE against Gram positive bacteria [1]: active | EC50 [2]: 3.85 nM | Effect of purified trtE on intracellular T. gondii (IFA) [3]: inhibited intracellular T. gondii growth | Number of parasites in the intestine (histology infection score) [4]: significantly reduced the number of parasites | Number of parasites in the intestine (histology infection score) ([4]; listed as TrtE): significantly reduced the number of parasites in the intestine | Reduction of intestinal Cryptosporidium infection (qPCR) ([4]; 4 mg/kg orally twice daily for 2 days from two days post-infection, day 5, purification method 2): 85% | Intestinal Cryptosporidium infection (qPCR) ([4]; 40 mg/kg orally twice daily for 2 days from two days post-infection, day 5, purification method 2): nearly eliminated | Overt signs of toxicity in neonatal mice (discussion) ([4]; four doses of 40 mg/kg over two days): did not exhibit overt signs of toxicity | Overt signs of toxicity in trtE treated neonatal mice ([4]; oral doses up to 40 mg/kg twice daily for 2 days): no overt toxicity was observed; also recorded: did not observe overt toxicity; also recorded: no overt signs of toxicity
